The conditions of data set [1]: cited from earlier work.
For data set [2] the following is noted: European Commission report, 25 Apr. 2003; cited from earlier work.
Setting [3] is: published in WO 00/28835, ruminants.

Data on six compounds can be found in patent US8158186B2, “2-methylthioethyl-substituted heterocycles as feed additives” (Evonik Degussa GmbH, priority 2007, dated 2012).

Like-named read-outs stand apart in the source and are kept apart here.

`CCC1(C)NC(=O)C(CCSC)O1` (centres unmarked) [compound 13, 2-ethyl-2-methyl-5-(2-(methylthio)ethyl)oxazolidin-4-one]: the melting point (in general, the temperature of the solid-liquid transition) was 62 °C. Same read-out and setting: the result for `CSCCC1OC(C)(C)NC1=O` (centres unmarked) [compound 10, 2,2-dimethyl-5-(2-(methylthio)ethyl)oxazolidin-4-one] reads 84 °C. Consider `CSCCC(N)C(=O)OC(C)(C)C` (racemic) [D,L-tert-butylmethionine, reference compound], for which the biological value in data set [1] (setting [3]) is listed as 80%. In turn, `CSCCC1OC(c2ccccc2)NC1=O` (centres unmarked) [compound 12, 5-(2-(methylthio)ethyl)-2-phenyloxazolidin-4-one] gave a melting point of 130 °C. With `CSCCC(O)C(=O)OC(C)C` (centres unmarked) [HMBi], the “HMBi absorbed through the rumen wall” value in data set [2] is “approximately 50%”. Further, the biological value entry in data set [1] (published in EP 1358805, HMBi applied to a porous carrier, compared with the at least 50% of WO 00/28835) was “comparable”; in data set [1] (setting [3]), “at least 50%”. In turn, `CSCCC1OC2(CCCCC2)NC1=O` (centres unmarked) [compound 14, 2-(2-(methylthio)ethyl)-1-oxa-4-azaspiro[4.5]decan-3-one] had a melting point of 109 °C.
